Earlier results as cited in patent US20080311196A1, “All Day Rhinitic Condition Treatment Regimen” (priority 2006, published 2008).

Columns and labels:
[1] = target: histamine H1-receptor (Homo sapiens, UniProt P35367); settings: E-isomer versus Z-isomer; fit in the histamine H1-receptor binding site
histamine H1-receptor, sequence (P35367 whole entry, species assumed): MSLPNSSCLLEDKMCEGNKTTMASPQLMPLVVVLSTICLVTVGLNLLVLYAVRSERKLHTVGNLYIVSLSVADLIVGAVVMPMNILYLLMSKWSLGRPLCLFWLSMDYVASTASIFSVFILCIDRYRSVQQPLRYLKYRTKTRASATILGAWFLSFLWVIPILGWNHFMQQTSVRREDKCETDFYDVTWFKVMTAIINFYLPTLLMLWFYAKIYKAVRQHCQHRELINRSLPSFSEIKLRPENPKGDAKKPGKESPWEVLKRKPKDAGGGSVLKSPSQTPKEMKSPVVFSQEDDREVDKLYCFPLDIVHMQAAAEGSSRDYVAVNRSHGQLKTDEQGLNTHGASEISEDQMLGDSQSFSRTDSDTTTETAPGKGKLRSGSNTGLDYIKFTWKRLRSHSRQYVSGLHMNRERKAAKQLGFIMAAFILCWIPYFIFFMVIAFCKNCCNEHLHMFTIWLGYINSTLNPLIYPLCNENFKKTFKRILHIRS

| Compound | time of maximal pharmacological sedation after dosing (after dosing) [hour] | persistence of sedation following dosing (following dosing, usually not longer than) [h] | duration of inhibition of the symptoms of rhinitis (single dose) | potency relative to Z-triprolidine [1] |
| --- | --- | --- | --- | --- |
| CN(C)CCC(c1ccc(Cl)cc1)c1ccccn1 (stereo not shown) [chlorpheniramine] | 3 to 4 | 6 to 8 | more than 24 hours | – |
| E-triprolidine | – | – | – | E-triprolidine, for example, is 1000-fold |
